According to patent US20090325803A1, “CONTROL OF AQUATIC WEEDS USING SELECTED HERBICIDAL COMBINATIONS WITH A SYNTHETIC AUXIN” (priority 2008, published 2009):

Tests used:
Assay type in all cases: in vivo
[1] = test system: Eurasian watermilfoil (EWM); assay: Root and shoot dry weights of Eurasian watermilfoil after treatment with triclopyr, 2,4-d, diquat alone and in combination, harvest at 32 d (Example 3); settings: single herbicide at 50 ppb, vs untreated controls
Source text: Apical sections (12 to 15 cm in length) of Eurasian watermilfoil (EWM) were planted into small pots (13.5 cm length×3.75 cm diameter) containing Wallace Farm® (topsoil amended with 14-14-14 slow release Osmocote® fertilizer (˜2.5 g Osmocote/kg soil). Approximately 5 to 7 cm of the apical section extended above the sediment at planting, and a sand cap was placed over the potting soil (˜2 cm deep). Plants were then transferred to a 12 L acrylic tanks filled with well water. Plants were allowed to grow to two-thirds the height of tanks (approximately 7 d) before the following treatment was initiated in triple replicate: 1) Untreated controls, 2) triclopyr 50 ppb, 3) 2,4-d 50 ppb, 4) diquat 50 ppb, 5) diquat 50 ppb+triclopyr 50 ppb, 6) diquat 50 ppb+2,4-d 50 ppb. Plants were harvested at 32 d. At harvest, plants were rinsed free of algae, roots and shoots were separated, and placed in paper sacks in a drying oven for 4 d at 70° C. temperature, and dry weights were determined (FIG. 3.1).

[2] = test system: Eurasian watermilfoil (EWM); assay: GR50 and Isobole analysis of triclopyr and 2,4-d alone and in combination, above ground biomass 33 days after treatment (Example 4); settings: total herbicide concentration, regression of 30-120 ppb treatments, n=3
Source text: Eurasian watermilfoil (EWM) was collected from ponds in Seymour, Ind. Single apical meristems were planted into small pots (13.5 cm length×3.75 cm diameter) containing Wallace Farm® (topsoil amended with 14-14-14 slow release Osmocote® fertilizer (˜2.5 g Osmocote/kg soil). Approximately 5 to 7 cm of the apical section extended above the sediment at planting, and a sand cap was placed over the potting soil (˜2 cm deep). Plants were then transferred to a 12 L acrylic tanks filled with well water. Tanks were maintained in a growth room with 14:10 h photoperiod at 26° C. Plants were allowed to establish growth for 26 days before they were treated.
Pretreatment above ground biomass was harvested the day of the treatment and dry weights were determined. Treatments were replicated three times in a completely randomized design. […]
All above ground biomass was harvested 33 days after treatment. Biomass was dried to constant moisture at 70° C. for 3 d, and dry weights were determined. Data were subjected to regression analysis using Sigma Plot software, and a GR50 was determined (concentration causing a 50% reduction in dry weight) for each treatment. […]

[3] = test system: Eurasian watermilfoil (EWM); assay: Root and shoot dry weights of Eurasian watermilfoil after 40 d exposure to triclopyr and fluridone, 12 L tanks (Example 2); settings: triclopyr 75 ppb alone
Source text: Apical sections (12 to 15 cm in length) of Eurasian watennilfoil (EWM) were planted into small pots (13.5 cm length×3.75 cm diameter) containing Wallace Farm® topsoil amended with 14-14-14 slow release Osmocote® fertilizer (˜2.5 g Osmocote/kg soil). Approximately 5 to 7 cm of the apical section extended above the sediment at planting, and a sand cap was placed over the potting soil (˜2 cm deep). Plants were then transferred to a 12 L acrylic tanks filled with well water. Plants were allowed to grow for 7 d before the following treatments were initiated in triple replicate: 1) fluridone at 10 ppb, 2) triclopyr at 75 ppb, 3) fluridone (10 ppb) plus triclopyr (75 ppb), 4) untreated controls. Plants were harvested at 40 d. At harvest, plants were rinsed free of algae, roots and shoots were separated, and placed in paper sacks in a drying oven for 4 d at 70° C. temperature, and dry weights were determined (FIG. 2.1).

Row | SMILES | reduction in root biomass [1] | GR50 (concentration causing a 50% reduction in dry weight) [2] | reduction of below ground biomass ([3]; root dry weight) | reduction of above ground biomass ([3]; shoot dry weight)
1 | c1cc[n+]2c(c1)-c1cccc[n+]1CC2 [diquat, 1,1′-ethylene 2,2′-dipyridylium dibromide] | 86% |  |  | 
2 | O=C(O)COc1ccc(Cl)cc1Cl [2,4-d, (2,4-dichlorophenoxy) acetic acid] | 66% | 162.6 ppb |  | 
3 | O=C(O)COc1nc(Cl)c(Cl)cc1Cl [triclopyr, 3,5,6-trichloro-2-pyridyloxyacetic acid] | 90% | 63.0 ppb | 74% | 96%
